# Results published in US20050182002A1, “Agents which interact with a serotonin transporter for the treatment of cancer” (priority 2002, published 2005).
# Read-outs that look alike come from different tables or passages of the source.
# Key:
# [1] = tested on: normal peripheral blood mononuclear cells (PBMC); conditions: 24 h
# From the text: Patients on SSRI's for depression sustain their circulating levels for months on repeated administrations. Also, circulating levels are believed to represent a gross underestimation of the accumulation of SSRI in body tissues. The lymphoma are, by definition, tumours of lymphoid tissues (e.g. lymph nodes).
# L3055 BL cells [2] = experiment: TUNEL DNA strand breaks, FACS; assay type: cell-based; conditions: fluoxetine 20 μM, 17 h, 10^6/ml; Means ± SE of 3; control 17.8 ± 3.7
# From the text: Neither BL cells nor their normal germinal centre B cell equivalents tended to produce the extensive “DNA ladders” that can be seen as a result of DNA fragmentation when other cells (e.g. thymocytes) undergo apoptosis.
# L3055 cells [3] = experiment: Caspase activity (FAM-VAD-FMK, FACS); assay type: cell-based; conditions: single dose for 24 hours; fluoxetine 10 μM, paroxetine 10 μM, citalopram 100 μM
# Description: Caspase activity was detected using the CaspaTag Caspase Activity Kit (Intergen, Oxford, UK). Cells cultured under the conditions indicated below were harvested into 300 μl of culture medium at a cell density of 10^6cells/ml, followed by the addition of […] of a 30×working solution of FAM-VAD-FMK (a carboxy fluorescent tagged caspase inhibitor) (Intergen Co., USA). Cells were then incubated for 1 hr at 37° C. under 5% CO2 while protecting the tubes from light. At the end of the incubation, they were washed twice in 2 ml of 1×washing buffer, followed by addition of 2 μl of PI to distinguish dead cells from live cells, then analysed on an EPICS XL-MCL flow cytometer or by confocal microscopy. For the latter, treated cells were harvested into 300 μl of culture medium containing 10 μl of FAM-VAD-FMK before incubating for 1 hr under the conditions described above. Next, 1.5 μl of Hoechst 33342 stain was added for 5 min, and cells were washed twice in 2 ml of 1×washing buffer following the addition of 1 μl of PI.
# L3055 cells [4] = experiment: Cell cycle analysis (propidium iodide, flow cytometry); assay type: cell-based; conditions: 24 hr; each at its maximal concentration (5-HT 150 μM, fluoxetine 10 μM, anti-μ chain antibody 10 μg/ml)
# Description: Cells cultured under conditions indicated below were harvested into 100 μl of 1×PBS followed by 400 μl cell cycle buffer containing Triton X-100 and propidium iodide and left to incubate at 4° C. for 1 hr to allow staining of DNA. The degree of fluorescence emitted by bound PI is directly proportional to the amount of DNA in each cell and was measured by flow cytometry as previously described (MacDonald I, et al. Blood (1996); 87:1147-1154). Results are expressed as percentage of viable cells residing in each phase of the cycle.
# L3055 cells [5] = experiment: Syto 16 / propidium iodide staining (viable, apoptotic, necrotic); assay type: cell-based
# Description: Changes in the viability of cells cultured under conditions indicated below were quantified by assessment of forward and 90° (side) light scatter of cells as previously described (Dive C, et al. Biochimica Biophysica Acta (1992); 1133:275-285) using an EPICS XL-MCL flow cytometer (Beckman Coulter, Miami, Fla., USA). Prior to analysis, cells were harvested into polythene FACS tubes, and fixed at 4° C. in 400 μl of FACS buffer [PBS with 5% NGS and 2% Formaldehyde] (BDH/MERCK). Cells were gated in two populations (viable and dead) according to their forward and side light scatter. Viability was expressed as a percentage of the total number of cells residing in the viable and non-viable gates. Cells were also analysed according to Schuurhuis et al (Schuurhuis G J, et al. Exp. Haematol. (1997); 25:754-759) in order to assess the percentages within treated populations of those that were viable, apoptotic, or necrotic. Syto 16 was added at a concentration of 250 nM in PBS to 500,000 cells and incubated at RT for 30 min, at which time 5 μg/ml propidium iodide (PI) was added. Samples were then analysed immediately by FACS and a 2D plot generated of syto 16 fluorescence versus PI fluorescence: syto 16 is taken up only by viable cells whereas Pi exclusively enters necrotic cells—syto 16^−ve/PI^−ve cells are deemed apoptotic.
# biopsylike BL cells [6] = experiment: Real-time RT-PCR gene expression; assay type: cell-based; conditions: data not shown
# From the text: BL is characterised by translocations of one c-myc allele to one of the immunoglobulin loci and the extraordinarily high growth rate that characterises these tumours reflects the pro-proliferative actions of the translocated gene. Despite its hallmark translocation to immunoglobulin loci, the BL-associated constitutive expression of c-myc remains dependent on the binding of the recognised c-myc transcription factor Nm23-H2 to a PuF site within the regulatory sequence of the translocated gene.
# L3055 BL cells [7] = experiment: DNA synthesis by [3H]-thymidine incorporation in L3055 cells; assay type: cell-based
# Description: DNA synthesis was determined by measuring ^3H-thymidine ([^3H]Tdr; Amersham, UK) incorporation into cellular DNA. Cells were cultured in 200 μL of supplemented medium at densities and for times indicated below in flat-bottomed, 96-well tissue culture plates (Becton Dickinson, Oxford, U K) then pulsed for the final 4 h with 50 μl of 10 μCi/ml [^3H]Tdr before harvesting on a Skatron cell harvester (Helis Bio Ltd, Newmarket, UK).
# L3055 BL cells [8] = experiment: Annexin V binding (phosphatidylserine exposure), FACS; assay type: cell-based; conditions: fluoxetine 20 μM, 17 h, 10^6/ml, Means ± SE of 3
# From the text: Annexin V binding to phosphatidylserine exposed on the outer leaflet of cells to signal for phagocytic engulfment is another commonly used measure of programmed death although caution should be applied when using as a sole indicator for assessing apoptosis in B cells.
# L3055 cells [9] = experiment: Intracellular free Ca2+; assay type: cell-based
# From the text: The increase in intracellular free Ca^2+ is known to be an important step in the induction of apoptosis.
# [10] = tested on: actively cycling tonsilar B cells; experiment: DNA synthesis in actively cycling tonsilar B cells; assay type: cell-based; conditions: overnight fluoxetine up to 20 μM after 2 days stimulation with SAC (± CD40L) or PMA (± ionomycin)
# biopsylike BL cells [11] = experiment: PARP-1 cleavage; assay type: cell-based; conditions: 20 μM fluoxetine
# [12] = tested on: non-BL lines Nalm-6, RPMI 8226, Jurkat, J10, and CEM; experiment: DNA synthesis (3H-Thymidine incorporation) in non-BL lines; assay type: cell-based; conditions: data not shown
structure (smiles),measurement,setting,value
CNCCC(Oc1ccc(C(F)(F)F)cc1)c1ccccc1 (stereo not shown) [fluoxetine],viability of PBMC,[1]; 5 μM,97.3±0.88%
same,viability of PBMC,[1]; 10 μM,97.3±0.33%
same,% TUNEL positive,L3055 BL cells [2],35.7 ± 7.6%
same,effect on number of cells showing caspase activity (in words),L3055 cells [3],significant effect on the numbers of cells showing caspase activity
same,cell cycle status (in words),L3055 cells [4],accumulation of arresting cells in the G0/G1 compartment
same,lymphoma cells entering apoptosis,"L3055 cells [5]; fluoxetine 10-15 μM, 24 hours",about 40%
same,number of viable cells (syto 16+ve/PI−ve) (in words),"L3055 cells [5]; increasing concentrations, 24 hr",directly drove the lymphoma cells to die
same,reduction in levels of c-myc,biopsylike BL cells [6]; 6 h exposure to fluoxetine,~60%
same,reduction in levels of nm23-H2,biopsylike BL cells [6]; 6 h exposure to fluoxetine,~60%
same,decrease in the expression of nm23-H1 mRNA,biopsylike BL cells [6]; fluoxetine,75%
same,influence of pre-treatment on 5-HT-dependent inhibition of DNA synthesis (in words),L3055 BL cells [7]; cells pre-treated with agent before 5-HT,substantially reversed
same,effect on DNA synthesis (in words),"L3055 BL cells [7]; single dose, range of concentrations, [3H]-thymidine incorporation at 24 hr",dose dependent inhibitory effect
same,Annexin V binding MFI,L3055 BL cells [8]; control 3.9 ± 0.2,26.1 ± 8.4
same,Annexin V binding % positive,L3055 BL cells [8]; control 52.3 ± 1.8,81.1 ± 3.9%
same,basal Ca2+ (in words),L3055 cells [9]; data not shown,increase in basal Ca^2+
same,levels of intracellular free Ca2+ (in words),L3055 cells [9]; fluoxetine concentration range (FIG. 23),sustained increase in the levels of intracellular free Ca^2+
same,inhibition of DNA synthesis in actively cycling B cells (in words),[10],Little inhibition of DNA synthesis
same,PARP-1 cleavage (in words),biopsylike BL cells [11],extensive PARP-1 cleavage
same,level of 3H-Thymidine incorporation in non-BL lines (in words),[12],"either no, or only minor reductions"
